The values below come from PubChem BioAssay (NCI).

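48-hour exposure; five concentrations; linearly interpolated endpoints. GI50 is the concentration that inhibits growth by half. TGI is the concentration that stops growth completely.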

Holding throughout (assay): NCI tumour cell line growth inhibition, 48 h
Assay [1] concerns SF-295 CNS.
The test system of assay [2] is SNB-75 CNS.
The subject of assay [3] is HCC-2998 colon.
For assay [4], the system named is LOX IMVI melanoma.
Assay [5] deals with OVCAR-5 ovarian.
Assay [6] concerns SR leukemia.
Assay [7] deals with SK-OV-3 ovarian.
For assay [8], the system named is HCT-15 colon.
In assay [9] the test system is A498 renal.

Consider `Cc1ccc(OCC(=O)N2N=C(c3ccccc3)CC2(O)c2ccccc2)cc1` (configuration not stated), for which the TGI in assay [1] is more than 100 µM; in assay [2], more than 100 µM; in assay [3], more than 100 µM; in assay [4], more than 100 µM; in assay [5], 32.7 µM; in assay [6], more than 100 µM. In addition, the TGI in assay [7] and in assay [8] was more than 100 µM throughout.

Take `CCOc1ccccc1NC(=O)C(=O)CC(=O)c1c(C)n([O-])c2ccccc2[n+]1=O`: the TGI in assay [1], in assay [2], in assay [3], in assay [9], in assay [4] and in [5] was more than 100 µM in each case. Moreover, the TGI in assay [7] and in assay [8] was more than 100 µM each time.

Consider `CNC(P(=O)([O-])[O-])P(=O)([O-])[O-].N.N.[Pt+2]`, for which the GI50 in assay [1], in [2], in assay [3], in [4], in [5] and in assay [8] was more than 100 µM in each case. In addition, the TGI in assay [1], in [2], in assay [3], in assay [4], in assay [5] and in assay [8] was more than 100 µM each time.

Consider `O=C(c1ccccc1)C(c1ccccc1)C1(O)C(=O)Nc2c(Cl)cc(Cl)cc21` (configuration not stated), for which the TGI in [1] stood at 33.1 µM; in assay [2], 39.7 µM; in assay [3] it was 33.8 µM; in assay [4], 42.8 µM; in assay [5], 33.2 µM; in assay [7], 70.1 µM. Besides, in assay [8], the TGI is more than 100 µM.

Regarding `CCC[CH2][Sn-]([CH2]CCC)([CH2]CCC)[O]c1cc(Cl)c(Cl)cc1Cl`, the GI50 in [1] is 0.263 µM; in assay [2] it was 0.231 µM; in assay [3], 0.176 µM; in [9], 0.22 µM; in assay [4] it was 0.175 µM; in assay [7], 0.15 µM. For the same molecule, the GI50 in assay [8] was 0.165 µM. Moreover, the TGI in assay [1] came out at 0.732 µM; in assay [2], 1.14 µM; in [3] it was 0.334 µM; in [9], 0.609 µM; in [4], 0.34 µM; in [7], 0.379 µM. The TGI in assay [8] turned out to be 0.33 µM.

On to `CC1=C(C)C(=O)c2c(cc3ccc4ccccc4n23)C1=O`, for which the TGI in assay [1], in assay [2], in assay [3], in [9], in assay [4] and in assay [5] was more than 100 µM throughout. In addition, the TGI in [6], in assay [7] and in assay [8] was more than 100 µM throughout.

With `O=c1c2ccccc2[nH]c(=S)n1-c1ccc(Br)cc1`, the TGI in [1], in [2], in assay [3], in [9], in [4] and in assay [6] was more than 100 µM each time. In assay [8], this molecule yielded a TGI of more than 100 µM.

Regarding `COc1cc(CCc2ccc(OCCN(C)C)cc2)cc(OC)c1OC`, the TGI was more than 100 µM in assay [1]; more than 100 µM in assay [2]; more than 100 µM in assay [9]; more than 100 µM in assay [4]; 88.4 µM in assay [5]; more than 100 µM in assay [6]. The TGI in [8] was more than 100 µM.

Regarding `O=C(c1ccccc1)C(C(=O)c1ccccc1)C1(O)C(=O)c2ccccc2C1=O`, the TGI in assay [1], in [2], in assay [3], in assay [9], in [4] and in assay [5] was more than 100 µM each time. Besides, the TGI in assay [6], in assay [7] and in [8] was more than 100 µM throughout.

As to `CCOC(=O)[C@@]1(C)C=C2O[C@@H]3OC4(CCCCC4)O[C@@H]3C2=C2C(O)=CC=C(O)[C@]21C(=O)OC`, the TGI in assay [1], in [2], in assay [3], in [9], in assay [4] and in assay [5] was more than 68 µM in each case. Also, the TGI in assay [7] and in [8] was more than 68 µM in each case.

Turning to `CC[C@H](C)N(CCN)C(=O)c1cc2ccccc2c(-c2ccccc2Cl)n1`, the TGI in assay [1] came out at 28.4 µM; in assay [3], 9.06 µM; in assay [9], 17.4 µM; in [4], 27.7 µM; in [5] it was 27.9 µM; in [6] it was 28.1 µM. Besides, the TGI in [8] came out at 16.1 µM.

For the molecule `Nc1ccn(CCOC(=O)c2ccccc2)c(=O)n1`, the TGI in assay [1], in [2], in assay [9], in assay [4], in assay [5] and in assay [7] was more than 100 µM each time. In [8], the TGI is more than 100 µM.

On to `Cc1cc2c(c(C#N)c1C)NC(=O)CCC2=O`, for which the TGI in [1], in [2], in assay [3], in assay [9], in [6] and in assay [8] was more than 100 µM throughout.

`Cn1c(=O)nc2n(-c3ccc(Cl)cc3)c3ccc(Cl)cc3nc-2c1=O`: the TGI in assay [1] amounted to 19 µM; in assay [2], 10.4 µM; in assay [3], 40.6 µM; in assay [9] it was 24.6 µM; in assay [4], 13.1 µM; in assay [5], 29.6 µM. The TGI in [6] was 58 µM; in assay [7], more than 100 µM; in assay [8], 26.5 µM.

In the case of `N#Cc1c(Sc2ccccc2N)cccc1Sc1ccccc1N`, the GI50 in assay [1] was 84 µM; in assay [2], 2.24 µM; in [3] it was 67.7 µM; in [6], 56.8 µM; in assay [8], 55.6 µM. The molecule further had a TGI in [2] of 14.5 µM.

For the molecule `Nn1c(-c2ccccc2)nc2ccc(Br)cc2c1=O`, the TGI in assay [1], in assay [2], in [3], in assay [9], in assay [5] and in [7] was more than 100 µM in each case. Also, in assay [8], the TGI is more than 100 µM.

In the case of `Cc1nc2c(nc1C)C(=O)c1cc(O)ccc1C2=O`, the TGI in assay [1], in assay [2], in assay [3], in assay [9], in assay [4] and in [5] was more than 100 µM each time. For the same molecule, the TGI was more than 100 µM in assay [6], more than 100 µM in [7] and more than 67.3 µM in [8].

In the case of `O=C1C(=O)N(C(=O)c2ccc(Cl)c(Cl)c2)c2ccccc21`, the TGI in assay [1], in assay [2], in assay [4], in assay [5], in [6] and in assay [7] was more than 100 µM throughout.

Turning to `Cc1cc(C)nc(NS(=O)(=O)c2ccc(Nc3c4ccccc4nc4c(C(=O)Nc5ccc(S(=O)(=O)N=C(N)N)cc5)ccc(Cl)c34)cc2)n1`, the TGI was more than 100 µM in assay [1]; more than 100 µM in assay [2]; 38.4 µM in assay [3]; more than 100 µM in [9]; 34.7 µM in assay [4]; more than 100 µM in assay [5]. Further, the figures for the TGI in assay [6] and in assay [7] were 65.4 µM and 51 µM, respectively.

`Cn1c2c(c3ccccc31)CCN(CCCCN1CCc3c(n(C)c4ccccc34)C1=O)C2`: the TGI in [1], in assay [2], in assay [9], in [5], in assay [7] and in assay [8] was more than 100 µM in each case.

Consider `CC(=O)O/C=C(/C=C/OC(C)=O)C(C/C=C(\C)C#CC=C(C)C)OC(C)=O` (configuration not stated), for which the TGI in assay [1] was more than 100 µM; in assay [3] it was more than 100 µM; in [9] it was more than 100 µM; in [4] it was 70.7 µM; in [5] it was more than 100 µM; in assay [7], more than 100 µM. This molecule displayed a TGI in assay [8] of 50.3 µM.

As for `O=C(O)CSc1n[nH]c(-c2ccc(O)cc2)n1`, the TGI in assay [1], in assay [2], in assay [3], in assay [9], in assay [5] and in [6] was more than 100 µM throughout. Further, the TGI in assay [7] and in assay [8] was more than 100 µM in each case.

For `Cc1cnc2c(C)ccc([N+](=O)[O-])c2c1NCCCN(C)C`, the TGI in assay [1], in [3], in [4], in [5], in assay [6] and in assay [7] was more than 100 µM throughout. The molecule also came in with a TGI in assay [8] of more than 100 µM.

As for `O=C(O)c1c(-c2cccc3ccccc23)sc(-c2cccc3ccccc23)c1C(=O)O`, the TGI in assay [1], in [2], in assay [3], in [4], in assay [5] and in assay [6] was more than 100 µM each time. Besides, the TGI in [7] and in assay [8] was more than 100 µM throughout.

As to `CC1=C(C(=O)Nc2ccccc2C)C(c2ccccc2)C(C(=O)Nc2ccccc2C)=C(C)N1`, the TGI in assay [1] was more than 100 µM; in assay [2], more than 100 µM; in [3], more than 100 µM; in assay [9], more than 100 µM; in assay [4], 42.6 µM; in assay [5] it was more than 100 µM. In addition, the results for the TGI in assay [6], in assay [7] and in assay [8] were 42.5 µM, more than 100 µM and more than 100 µM, respectively.

Turning to `COc1cc(OC)c([C@@H]2OC(=O)C3C2C(=O)O[C@H]3c2cc(OC)c(OC)cc2OC)cc1OC` (some centres not stated), the TGI in assay [1], in [2], in [3], in assay [9], in [6] and in assay [7] was more than 100 µM each time. The molecule further registered a TGI in assay [8] of more than 100 µM.

For `COc1ccc2[nH]c3c(c2c1)CCN(C)CC3`, the TGI in assay [1], in [2], in assay [3], in assay [9], in assay [4] and in assay [5] was more than 100 µM throughout. For the same molecule, the TGI in [7] and in assay [8] was more than 100 µM each time.

Turning to `COC(=O)C1CC2(CC3=C1CCCC3)OCCO2` (configuration not stated), the TGI in assay [1], in [2], in assay [3], in assay [9], in assay [4] and in [7] was more than 100 µM in each case. In assay [8], this molecule registered a TGI of more than 100 µM.

For the molecule `CCc1cccc(C(C)C)c1NC(=O)C(=O)C(Cc1nc2ccccc2[nH]c1=O)C(=O)OC` (configuration not stated), the TGI in [1], in assay [2], in assay [3], in [9], in assay [4] and in assay [5] was more than 100 µM in each case. Further, the TGI in assay [6], in assay [7] and in [8] was more than 100 µM in each case.

As for `COc1cccc2cc(C)c(C(=O)c3ccccc3)nc12`, the TGI in [1], in assay [2], in assay [3], in [4], in assay [5] and in assay [8] was more than 100 µM each time.

Regarding `O=C1CC(O)C=C1Nc1ccc(Cl)cc1` (configuration not stated), the TGI in [1] is more than 100 µM; in [2], more than 100 µM; in assay [3] it was 44.5 µM; in assay [9], 32.6 µM; in assay [4], more than 100 µM; in assay [5], more than 100 µM. In addition, the TGI is 90.9 µM in assay [6] and more than 100 µM in assay [7].

Turning to `CC(=O)C1CC(C)=CCC12C(=O)Nc1ccccc12` (configuration not stated), the TGI in assay [1], in [2], in assay [3], in assay [9], in assay [4] and in assay [5] was more than 100 µM in each case. Also, the TGI in assay [7] and in [8] was more than 100 µM throughout.
